Laboratory results reported in paper PMC5914168 (ChemMedChem, 2017).
pKi: −log10 of the molar value. Read-outs that look alike come from different tables or passages of the source.

Columns and labels:
[1] = target: T1, GAK kinase domain (12-347) (Homo sapiens, UniProt O14976); assay: TR-FRET ligand binding displacement assay, GAK; settings: for NAK selectivity (ratio of GAK Ki and Ki of nearest NAK family member): selectivity against the nearest NAK family member; for fold drop in GAK potency: relative to 1
T1 sequence (O14976 12-347): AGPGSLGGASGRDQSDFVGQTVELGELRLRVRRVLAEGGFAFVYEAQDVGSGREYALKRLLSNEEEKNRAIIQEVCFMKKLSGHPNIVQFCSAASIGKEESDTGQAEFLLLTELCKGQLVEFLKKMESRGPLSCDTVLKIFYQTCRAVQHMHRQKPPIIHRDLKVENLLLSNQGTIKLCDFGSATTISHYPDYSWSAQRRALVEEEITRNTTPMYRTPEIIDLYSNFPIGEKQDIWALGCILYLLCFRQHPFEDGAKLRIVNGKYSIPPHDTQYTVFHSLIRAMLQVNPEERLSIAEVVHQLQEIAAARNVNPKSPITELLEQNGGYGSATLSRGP

[2] = target: BMP2K kinase domain (38-345) (Homo sapiens, UniProt Q9NSY1); assay: TR-FRET ligand binding displacement assay, BMP2K
BMP2K kinase domain (38-345), sequence (Q9NSY1 38-345): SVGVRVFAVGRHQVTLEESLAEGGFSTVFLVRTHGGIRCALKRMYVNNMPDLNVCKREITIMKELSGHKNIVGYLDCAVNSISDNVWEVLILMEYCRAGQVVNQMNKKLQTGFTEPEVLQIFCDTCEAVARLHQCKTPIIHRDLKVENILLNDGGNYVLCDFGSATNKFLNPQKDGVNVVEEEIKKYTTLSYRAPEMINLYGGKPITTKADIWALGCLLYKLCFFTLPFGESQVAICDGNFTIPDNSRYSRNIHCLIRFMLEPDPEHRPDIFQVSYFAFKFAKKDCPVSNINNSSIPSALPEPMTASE

[3] = target: AAK1 kinase domain (31-396) (Homo sapiens, UniProt Q2M2I8); assay: TR-FRET ligand binding displacement assay, AAK1
AAK1 kinase domain (31-396), sequence (Q2M2I8 31-396): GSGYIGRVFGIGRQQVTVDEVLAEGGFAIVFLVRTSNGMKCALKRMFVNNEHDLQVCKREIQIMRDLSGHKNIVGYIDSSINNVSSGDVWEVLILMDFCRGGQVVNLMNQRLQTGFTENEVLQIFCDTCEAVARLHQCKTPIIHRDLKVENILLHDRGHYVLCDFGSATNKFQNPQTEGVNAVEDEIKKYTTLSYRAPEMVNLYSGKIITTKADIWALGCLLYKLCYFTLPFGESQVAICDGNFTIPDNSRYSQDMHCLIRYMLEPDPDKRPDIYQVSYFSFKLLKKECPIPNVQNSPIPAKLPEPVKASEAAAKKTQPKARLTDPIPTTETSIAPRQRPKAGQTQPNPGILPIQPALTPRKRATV

[4] = target: STK16 kinase domain (13-305) (Homo sapiens, UniProt O75716); assay: TR-FRET ligand binding displacement assay, STK16
STK16 kinase domain (13-305), sequence (O75716 13-305): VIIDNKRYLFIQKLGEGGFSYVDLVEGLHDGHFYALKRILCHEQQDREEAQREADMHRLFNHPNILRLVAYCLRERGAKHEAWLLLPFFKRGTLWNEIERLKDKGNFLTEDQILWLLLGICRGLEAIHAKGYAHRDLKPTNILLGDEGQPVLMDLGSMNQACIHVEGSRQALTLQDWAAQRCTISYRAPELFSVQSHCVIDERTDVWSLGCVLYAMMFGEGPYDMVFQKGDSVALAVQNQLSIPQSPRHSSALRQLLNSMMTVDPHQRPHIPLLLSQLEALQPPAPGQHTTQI

[5] = read-out: Binding displacement assay Ki BMP2K, TR-FRET, 16-point dose response

| Compound | NAK selectivity (ratio of GAK Ki and Ki of nearest NAK family member) [1] | pKi [2] | pKi [3] | pKi [4] | pKi [1] | further results |
| --- | --- | --- | --- | --- | --- | --- |
| CC(C)(C)Oc1ccc(Nc2ccnc3ccc(C(F)(F)F)cc23)cc1 [Compound 39, N-(4-(tert-Butoxy)phenyl)-6-(trifluoromethyl)quinolin-4-amine] |  |  |  |  |  | range of affinity across all four NAK family kinases ([1]; GAK, AAK1, BMP2K, STK16): ≤ 8 fold |
| 6,7-Dimethoxy-N-(3,4,5-trimethoxyphenyl)quinolin-4-amine [Compound 57] |  |  |  |  |  | pKi [2, 5]: 4.72 |
| COc1cc(Nc2ccnc3cc(C(F)(F)F)ccc23)cc(OC)c1OC [Compound 51, 7-(Trifluoromethyl)-N-(3,4,5-trimethoxyphenyl)quinolin-4-amine] | 15000 |  |  |  |  |  |
| COc1cc(Nc2ncnc3ccc(C(F)(F)F)cc23)cc(OC)c1OC [Compound 13, 6-(Trifluoromethyl)-N-(3,4,5-trimethoxyphenyl)quinazolin-4-amine] | 73 |  |  |  |  |  |
| CS(=O)(=O)c1cccc(Nc2ccnc3ccc(C(F)(F)F)cc23)c1 [Compound 37, N-(3-(Methylsulfonyl)phenyl)-6-(trifluoromethyl)quinolin-4-amine] |  |  |  |  |  | STK16 affinity relative to GAK [4]: ≤ 2 fold |
| COc1cc(Nc2ccnc3ccc(S(C)(=O)=O)cc23)cc(OC)c1OC [Compound 47, 6-(Methylsulfonyl)-N-(3,4,5-trimethoxyphenyl)quinolin-4-amine] |  | < 4.00 |  |  |  |  |
| COc1ccc(OC)c(Nc2ccnc3ccc(C(F)(F)F)cc23)c1 [Compound 7, N-(2,5-Dimethoxyphenyl)-6-(trifluoromethyl)quinolin-4-amine] | 420 | < 4.00 | 4.10 | 4.24 | 6.85 |  |
| COc1cc(Nc2ncnc3ccc(C(F)(F)F)cc23)cc(OC)c1 [Compound 14, N-(3,5-Dimethoxyphenyl)-6-(trifluoromethyl)quinazolin-4-amine] | 26 |  |  |  |  | pKi ([3]; read-out: Binding displacement assay Ki AAK1, TR-FRET, 16-point dose response): < 4.00; pKi [2, 5]: < 4.00; pKi ([4]; read-out: Binding displacement assay Ki STK16, TR-FRET, 16-point dose response): 5.10 |
| COc1cc(Nc2ccnc3ccc(C(F)(F)F)cc23)cc(OC)c1OC [Compound 1, 6-(Trifluoromethyl)-N-(3,4,5-trimethoxyphenyl)quinolin-4-amine] |  | < 4.00 | 4.27 | 4.77 |  |  |
| COc1ccc(Nc2ccnc3ccc(C(F)(F)F)cc23)c(OC)c1 [Compound 6, N-(2,4-Dimethoxyphenyl)-6-(trifluoromethyl)quinolin-4-amine] | 81 | < 4.00 | 4.15 | 4.15 | 6.07 |  |

Second part, led by results:

| NAK selectivity (ratio of GAK Ki and Ki of nearest NAK family member) [1] | pKi [2] | pKi [3] | pKi [4] | pKi [1] | Compound | further results |
| --- | --- | --- | --- | --- | --- | --- |
| 14 | 4.25 |  |  |  | FC(F)(F)c1ccc2nccc(Nc3ccc4c(c3)OCCO4)c2c1 [Compound 12, N-(2,3-Dihydrobenzo[b][1,4]dioxin-6-yl)-6-(trifluoromethyl)quinolin-4-amine] |  |
| 9300 | < 4.00 |  |  |  | COc1cc(Nc2ccnc3cc(C#N)ccc23)cc(OC)c1OC [Compound 52, 4-((3,4,5-Trimethoxyphenyl)amino)quinoline-7-carbonitrile] |  |
|  | < 4.00 | 4.08 | < 4.00 |  | COc1cc(Nc2ccnc3ccc(F)cc23)cc(OC)c1OC [Compound 42, 6-Fluoro-N-(3,4,5-trimethoxyphenyl)quinolin-4-amine] |  |
| 1.5 | < 4.00 |  |  |  | COc1ccc(Nc2ncnc3ccc(C(F)(F)F)cc23)cc1 [Compound 15, N-(4-Methoxyphenyl)-6-(trifluoromethyl)quinazolin-4-amine] |  |
| 260 | 5.62 | 6.05 | 4.72 | 8.46 | C#Cc1cccc(Nc2ccnc3cc(OC)c(OC)cc23)c1 [Compound 55, N-(3-Ethynylphenyl)-6,7-dimethoxyquinolin-4-amine] |  |
|  | < 4.00 | 4.36 | < 4.00 |  | COc1cc(Nc2ccnc3cc(F)ccc23)cc(OC)c1OC [Compound 43, 7-Fluoro-N-(3,4,5-trimethoxyphenyl)quinolin-4-amine] |  |
| 26 | 4.12 | 4.25 | 4.72 | 6.14 | COc1ccc(Nc2ccnc3ccc(C(F)(F)F)cc23)cc1 [Compound 8, N-(4-Methoxyphenyl)-6-(trifluoromethyl)quinolin-4-amine] | fold drop in GAK potency [1]: 100 fold |
|  | < 4.00 | < 4.00 | < 4.00 |  | COc1ccc2nccc(Nc3cc(OC)c(OC)c(OC)c3)c2c1 [Compound 48, 6-Methoxy-N-(3,4,5-trimethoxyphenyl)quinolin-4-amine] |  |
| 420 | 4.36 | 4.62 | 4.62 | 7.24 | COc1ccc(Nc2ccnc3ccc(C(F)(F)F)cc23)cc1OC [Compound 5, N-(3,4-Dimethoxyphenyl)-6-(trifluoromethyl)quinolin-4-amine] | fold drop in GAK potency [1]: 10 fold |
| 22000 | < 4.00 | 4.24 | < 4.00 |  | COc1ccc2c(Nc3cc(OC)c(OC)c(OC)c3)ccnc2c1 [Compound 50, 7-Methoxy-N-(3,4,5-trimethoxyphenyl)quinolin-4-amine] |  |
|  | 6.17 | 6.59 | 5.82 | 6.40 | COc1cc2nccc(Nc3cccc(C(C)=O)c3)c2cc1OC [Compound 56, 1-(3-((6,7-dimethoxyquinolin-4-yl)amino)phenyl)ethan-1-one] | fold reduction in GAK activity ([1]; relative to 49): 100 fold |
|  | 4.96 |  |  |  | COc1ccccc1Nc1ccnc2ccc(C(F)(F)F)cc12 [Compound 10, N-(2-Methoxyphenyl)-6-(trifluoromethyl)quinolin-4-amine] |  |
| 640 | 4.07 | 4.47 | 4.28 | 7.27 | COc1cc(Nc2ccnc3ccc(C(F)(F)F)cc23)cc(OC)c1 [Compound 4, N-(3,5-Dimethoxyphenyl)-6-(trifluoromethyl)quinolin-4-amine] | fold drop in GAK potency [1]: 10 fold |
